The compounds below were run against cdc7/dbf4 (Homo sapiens, UniProt O00311) (assay: In vitro assay of CDC7/DBF4 inhibition (phosphoserine 108-MCM-2 detection, donor/acceptor beads)). Conditions: Test Concentration 0.93 μM; 0.5 μM ATP solution, MCM-2 substrate, 1 hr room temperature.
Assay type: biochemical
Method: A 20.5 μL kinase reaction was performed on OptiPlate-384 plates PerkinElmer, 6007290) as follows by sequential addition of: 0.5 μL of test compounds of the invention in DMSO, 10 μL 0.5 μM ATP in reaction buffer, 10 μL 2.2 nM cdc7/dbf4 baculovirus derived), 4.4 nM MCM-2 in a reaction buffer. The reaction proceeded for 1 hr at room temperature on an orbital shaker. The reaction was terminated by addition of 10 μL detection buffer containing Streptavidin-coated donor beads and Protein A conjugated acceptor beads (54 μg/ml), and 1:4000 diluted rabbit antibody against phosphoserine 108-MCM-2 (Bethyl Labs). The mixture was incubated at room temperature for 4 hrs in the dark. The plate was then read on a PerkinElmer Fusion instrument. The reaction buffer contained 50 mM Hepes (pH 7.2-7.5), 10 mM MgCl2, 1 mM dithiothreitol (DTT), leupeptin (10 μg/ml), and bovine serum albumin (BSA) (0.2 mg/ml). The detection buffer contained 25 mM Tris (pH 7.5), 400 mM NaCl, 100mM EDTA, 0.3% BSA, and 0.05% Tween 20.
Representative compounds of the invention which inhibited the kinase reaction >70% in the above cdc7/db4 assay were selected for further analysis and confirmation. Test compounds were diluted in DMSO to a concentration of 0.93 μM or 1.39 μM and 0.5 μL of each test solution was added to wells for assay using the assay conditions and methods as described above.

Chain of cdc7/dbf4 (O00311 whole entry): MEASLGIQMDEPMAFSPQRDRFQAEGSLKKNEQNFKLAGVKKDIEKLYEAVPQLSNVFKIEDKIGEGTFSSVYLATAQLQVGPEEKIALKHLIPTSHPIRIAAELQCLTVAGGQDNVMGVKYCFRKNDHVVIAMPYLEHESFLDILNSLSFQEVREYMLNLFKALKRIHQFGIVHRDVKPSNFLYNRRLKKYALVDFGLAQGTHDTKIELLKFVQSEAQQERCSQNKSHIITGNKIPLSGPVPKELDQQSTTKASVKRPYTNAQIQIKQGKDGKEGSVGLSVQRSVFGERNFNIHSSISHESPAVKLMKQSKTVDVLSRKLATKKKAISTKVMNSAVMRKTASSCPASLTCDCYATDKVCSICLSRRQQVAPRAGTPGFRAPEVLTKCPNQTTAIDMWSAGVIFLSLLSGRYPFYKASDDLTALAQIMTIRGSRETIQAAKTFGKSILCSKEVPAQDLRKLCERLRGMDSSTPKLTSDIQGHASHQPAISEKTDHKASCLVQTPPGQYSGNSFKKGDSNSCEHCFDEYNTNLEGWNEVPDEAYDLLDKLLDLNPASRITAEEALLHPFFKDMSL
Chain of cdc7/dbf4 (Q9UBU7 whole entry partner): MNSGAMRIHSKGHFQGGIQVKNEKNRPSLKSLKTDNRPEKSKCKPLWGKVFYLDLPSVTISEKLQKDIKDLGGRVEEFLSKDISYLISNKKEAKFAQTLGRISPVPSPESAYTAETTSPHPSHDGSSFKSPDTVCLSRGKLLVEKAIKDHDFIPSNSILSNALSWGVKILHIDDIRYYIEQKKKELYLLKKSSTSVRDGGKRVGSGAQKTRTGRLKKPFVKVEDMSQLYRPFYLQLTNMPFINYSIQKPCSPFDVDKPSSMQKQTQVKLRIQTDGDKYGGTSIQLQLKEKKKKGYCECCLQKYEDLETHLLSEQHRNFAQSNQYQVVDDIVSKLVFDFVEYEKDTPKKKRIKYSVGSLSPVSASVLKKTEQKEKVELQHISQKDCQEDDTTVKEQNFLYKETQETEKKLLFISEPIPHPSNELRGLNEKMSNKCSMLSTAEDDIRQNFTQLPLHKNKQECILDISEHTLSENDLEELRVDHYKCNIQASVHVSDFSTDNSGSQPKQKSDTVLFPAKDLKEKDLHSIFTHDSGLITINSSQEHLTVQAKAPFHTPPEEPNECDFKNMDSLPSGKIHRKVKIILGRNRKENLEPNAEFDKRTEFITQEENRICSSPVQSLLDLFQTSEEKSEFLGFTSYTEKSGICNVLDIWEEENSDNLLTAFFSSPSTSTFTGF

Structure (SMILES) | inhibition at 0.93 µM (stock)
O=c1nc(-c2ccc3[nH]ncc3c2)cc(-c2cccc(F)c2)[nH]1 [Example 2, 6-(3-fluorophenyl)-4-(1H-indazol-5-yl)pyrimidin-2(1H)-one] | 82%
COc1ccc(-c2cc(-c3ccc4[nH]ncc4c3)nc(=O)[nH]2)c(F)c1 [Example 3, 6-(2-fluoro-4-methoxyphenyl)-4-(1H-indazol-5-yl)pyrimidin-2(1H)-one] | 81%
COc1ccc(OC)c(-c2cc(-c3ccc4[nH]ncc4c3)nc(=O)[nH]2)c1 [Example 4, 6-(2,5-dimethoxyphenyl)-4-(1H-indazol-5-yl)pyrimidin-2(1H)-one] | 94%
COc1ccc(-c2cc(-c3ccc4[nH]ncc4c3)nc(=O)[nH]2)cc1F [Example 5, 6-(3-fluoro-4-methoxyphenyl)-4-(1H-indazol-5-yl)pyrimidin-2(1H)-one] | 75%
CCc1ccc(-c2cc(-c3ccc4[nH]ncc4c3)nc(=O)[nH]2)cc1 [Example 6, 6-(4-ethylphenyl)-4-(1H-indazol-5-yl)pyrimidin-2(1H)-one] | 83%
COc1ccc(-c2cc(-c3ccc4[nH]ncc4c3)nc(=O)[nH]2)cc1OC [Example 7, 6-(3,4-dimethoxyphenyl)-4-(1H-indazol-5-yl)pyrimidin-2(1H)-one] | 62%
O=c1nc(-c2ccc3[nH]ncc3c2)cc(-c2cccc(C(F)(F)F)c2)[nH]1 [Example 8, 4-(1H-indazol-5-yl)-6-[3-(trifluoromethyl)phenyl]pyrimidin-2(1H)-one] | 55%
O=c1nc(-c2ccc3[nH]ncc3c2)cc(-c2ccccc2F)[nH]1 [Example 9, 6-(2-fluorophenyl)-4-(1H-indazol-5-yl)pyrimidin-2(1H)-one] | 87%
O=c1nc(-c2ccc3[nH]ncc3c2)cc(-c2cccc(Cl)c2)[nH]1 [Example 10, 6-(3-chlorophenyl)-4-(1H-indazol-5-yl)pyrimidin-2(1H)-one] | 98%
O=c1nc(-c2ccc3[nH]ncc3c2)cc(-c2ccc(OCc3ccccc3)cc2)[nH]1 [Example 15, 6-[4-(benzyloxy)phenyl]-4-(1H-indazol-5-yl)pyrimidin-2(1H)-one] | 58%
O=c1nc(-c2ccc3[nH]ncc3c2)cc(-c2ccc(N3CCNCC3)cc2)[nH]1 [Example 16, 4-(1H-indazol-5-yl)-6-(4-piperazin-1-ylphenyl)pyrimidin-2(1H)-one] | 94%

Same assay, conditions: Test Concentration 1.39 μM; 0.5 μM ATP solution, MCM-2 substrate, 1 hr room temperature

Structure (SMILES) | inhibition at 1.39 µM (stock)
O=c1nc(-c2ccc3[nH]ncc3c2)cc(-c2ccccc2)[nH]1 [Example 11, 4-(1H-indazol-5-yl)-6-phenylpyrimidin-2(1H)-one] | 98%
O=c1nc(-c2ccc3[nH]ncc3c2)cc(-c2cccc(OCc3ccccc3)c2)[nH]1 [Example 12, 6-[3-(benzyloxy)phenyl]-4-(1H-indazol-5-yl)pyrimidin-2(1H)-one] | 98%
O=c1nc(-c2ccc3[nH]ncc3c2)cc(-c2ccc(N3CCOCC3)cc2)[nH]1 [Example 13, 4-(1H-indazol-5-yl)-6-(4-morpholin-4-ylphenyl)pyrimidin-2(1H)-one] | 92%
O=c1nc(-c2ccc3[nH]ncc3c2)cc(-c2ccc(Oc3ccccc3)cc2)[nH]1 [Example 14, 4-(1H-indazol-5-yl)-6-(4-phenoxyphenyl)pyrimidin-2(1H)-one] | 84%

From patent US20070293491A1, “INDAZOLE COMPOUNDS AND METHODS FOR INHIBITION OF CDC7” (NOVARTIS VACCINES AND DIAGNOSTICS, INC., priority 2006, published 2007)
